Patent US9708314B2, “Heterocyclic amide compound” (NISSAN CHEMICAL INDUSTRIES, LTD., priority 2013, dated 2017)

Legend:
Type in all cases: in vivo
Scirpus juncoides = test: Test Example 2: herbicidal activity, application during weed generation in submerged conditions; conditions: Eighteenth Table; application herbicide amount 320 g/ha
Summary of the method: (§1)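 Mixed sowings in flooded alluvial soil (4 cm water), greenhouse 25-30 °C; emulsifiable concentrate diluted in water applied to the water surface at the 1-2 leaf stage, rate in g/ha. Effect scored three weeks later on a 0-5 scale (5 = ≥90% herbicidal ratio, 0 = ≤5%).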

[1] = test system: Echinochloa oryzacola Vasing.; test: as above; conditions: Eighteenth Table; application herbicide amount 320 g/ha
Summary of the method: as §1

Monochoria vaginalis = test: as above; conditions: Eighteenth Table; application herbicide amount 320 g/ha
Summary of the method: as §1

Alopecurus myosuroides = test: Test Example 4: herbicidal effect by application to foliage (diluvial soil, plastic box); conditions: for J: herbicidal effect on Alopecurus myosuroides: application to foliage, application herbicide amount 320 g/ha
Summary of the method: (§2)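 Plants were grown in sterilized diluvial soil in a greenhouse at 25-30° C for 14 days, then sprayed on stems and leaves with water-diluted emulsion formulation at set rates in g/ha. Weed control and crop injury were scored 3 weeks after treatment on a 0-5 herbicidal-ratio scale, from 0 (≤5%) to 5 (≥90%).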

Digitaria ciliaris = test: as above; conditions: for F: herbicidal effect on Digitaria ciliaris: application to foliage, application herbicide amount 320 g/ha
Summary of the method: as §2

Apera spica-venti. = test: as above; conditions: for L: herbicidal effect on Apera spica-venti.: application to foliage, application herbicide amount 320 g/ha
Summary of the method: as §2

Avena fatua = test: as above; conditions: for I: herbicidal effect on Avena fatua: application to foliage, application herbicide amount 320 g/ha
Summary of the method: as §2

Veronica persica = test: as above; conditions: for R: herbicidal effect on Veronica persica: application to foliage, application herbicide amount 320 g/ha
Summary of the method: as §2

Setaria viridis = test: as above; conditions: for G: herbicidal effect on Setaria viridis: application to foliage, application herbicide amount 320 g/ha
Summary of the method: as §2

[2] = test system: Echinochloa crus-galli var. crus-galli; test: as above; conditions: for H: herbicidal effect on Echinochloa crus-galli var. crus-galli: application to foliage, application herbicide amount 320 g/ha
Summary of the method: as §2

Chenopodium album = test: as above; conditions: for O: herbicidal effect on Chenopodium album: application to foliage, application herbicide amount 320 g/ha
Summary of the method: as §2

Galium spurium = test: as above; conditions: for Q: herbicidal effect on Galium spurium: application to foliage, application herbicide amount 320 g/ha
Summary of the method: as §2

Lolium multiflorum Lam. = test: as above; conditions: for K: herbicidal effect on Lolium multiflorum Lam.: application to foliage, application herbicide amount 320 g/ha
Summary of the method: as §2

Amaranthus retroflexus = test: as above; conditions: for N: herbicidal effect on Amaranthus retroflexus: application to foliage, application herbicide amount 320 g/ha
Summary of the method: as §2

Abutilon theophrasti = test: as above; conditions: for M: herbicidal effect on Abutilon theophrasti: application to foliage, application herbicide amount 320 g/ha
Summary of the method: as §2

Row | SMILES | B (Scirpus juncoides) herbicidal ratio grade (Scirpus juncoides) | A (Echinochloa oryzicola Vasing.) herbicidal ratio grade [1] | C (Monochoria vaginalis) herbicidal ratio grade (Monochoria vaginalis) | J: herbicidal effect on Alopecurus myosuroides (Alopecurus myosuroides) | F: herbicidal effect on Digitaria ciliaris (Digitaria ciliaris) | L: herbicidal effect on Apera spica-venti. (Apera spica-venti.) | I: herbicidal effect on Avena fatua (Avena fatua) | R: herbicidal effect on Veronica persica (Veronica persica) | G: herbicidal effect on Setaria viridis (Setaria viridis) | H: herbicidal effect on Echinochloa crus-galli var. crus-galli [2] | O: herbicidal effect on Chenopodium album (Chenopodium album) | Q: herbicidal effect on Galium spurium (Galium spurium) | K: herbicidal effect on Lolium multiflorum Lam. (Lolium multiflorum Lam.) | N: herbicidal effect on Amaranthus retroflexus (Amaranthus retroflexus) | M: herbicidal effect on Abutilon theophrasti (Abutilon theophrasti) | also measured
1 | Cn1nnnc1NC(=O)c1ccc(C(F)(F)F)n2c(CSCC(F)(F)F)nnc12 [2-030] | 3 (Herbicidal ratio of 40% or more and less than 70%) | 4 (Herbicidal ratio of 70% or more and less than 90%) | 4 (Herbicidal ratio of 70% or more and less than 90%) |  |  |  |  |  |  |  |  |  |  |  |  | J (Alopecurus myosuroides) herbicidal effect grade (Alopecurus myosuroides; foliage application, 320 g/ha): 3 (Herbicidal ratio of 40% or more and less than 70%); F (Digitaria ciliaris) herbicidal effect grade (Digitaria ciliaris; foliage application, 320 g/ha): 5 (Herbicidal ratio of 90% or more (almost completely withered)); L (Apera spica-venti.) herbicidal effect grade (Apera spica-venti.; foliage application, 320 g/ha): 5 (Herbicidal ratio of 90% or more (almost completely withered)); I (Avena fatua) herbicidal effect grade (Avena fatua; foliage application, 320 g/ha): 4 (Herbicidal ratio of 70% or more and less than 90%); R (Veronica persica) herbicidal effect grade (Veronica persica; foliage application, 320 g/ha): 5 (Herbicidal ratio of 90% or more (almost completely withered)); G (Setaria viridis) herbicidal effect grade (Setaria viridis; foliage application, 320 g/ha): 5 (Herbicidal ratio of 90% or more (almost completely withered)); H (Echinochloa crus-galli var. crus-galli) herbicidal effect grade ([2]; foliage application, 320 g/ha): 5 (Herbicidal ratio of 90% or more (almost completely withered)); O (Chenopodium album) herbicidal effect grade (Chenopodium album; foliage application, 320 g/ha): 5 (Herbicidal ratio of 90% or more (almost completely withered)); Q (Galium spurium) herbicidal effect grade (Galium spurium; foliage application, 320 g/ha): 3 (Herbicidal ratio of 40% or more and less than 70%); K (Lolium multiflorum Lam.) herbicidal effect grade (Lolium multiflorum Lam.; foliage application, 320 g/ha): 3 (Herbicidal ratio of 40% or more and less than 70%); N (Amaranthus retroflexus) herbicidal effect grade (Amaranthus retroflexus; foliage application, 320 g/ha): 5 (Herbicidal ratio of 90% or more (almost completely withered)); M (Abutilon theophrasti) herbicidal effect grade (Abutilon theophrasti; foliage application, 320 g/ha): 5 (Herbicidal ratio of 90% or more (almost completely withered))
2 | Cn1nnnc1NC(=O)c1ccc(C(F)(F)F)n2c(C(C)(C)C)nnc12 [2-027] | 4 (Herbicidal ratio of 70% or more and less than 90%) | 5 (Herbicidal ratio of 90% or more (almost completely withered)) | 4 (Herbicidal ratio of 70% or more and less than 90%) | 4 (Herbicidal ratio of 70% or more and less than 90%) | 5 (Herbicidal ratio of 90% or more (almost completely withered)) | 4 (Herbicidal ratio of 70% or more and less than 90%) | 3 (Herbicidal ratio of 40% or more and less than 70%) | 5 (Herbicidal ratio of 90% or more (almost completely withered)) | 5 (Herbicidal ratio of 90% or more (almost completely withered)) | 5 (Herbicidal ratio of 90% or more (almost completely withered)) | 5 (Herbicidal ratio of 90% or more (almost completely withered)) | 4 (Herbicidal ratio of 70% or more and less than 90%) | 3 (Herbicidal ratio of 40% or more and less than 70%) | 5 (Herbicidal ratio of 90% or more (almost completely withered)) | 5 (Herbicidal ratio of 90% or more (almost completely withered)) | 
3 | CCCc1nnc2c(C(=O)Nc3nnnn3C)ccc(C(F)(F)F)n12 [2-019] | 3 (Herbicidal ratio of 40% or more and less than 70%) | 4 (Herbicidal ratio of 70% or more and less than 90%) | 4 (Herbicidal ratio of 70% or more and less than 90%) | 2 (Herbicidal ratio of 20% or more and less than 40%) | 5 (Herbicidal ratio of 90% or more (almost completely withered)) | 4 (Herbicidal ratio of 70% or more and less than 90%) | 3 (Herbicidal ratio of 40% or more and less than 70%) | 5 (Herbicidal ratio of 90% or more (almost completely withered)) | 5 (Herbicidal ratio of 90% or more (almost completely withered)) | 5 (Herbicidal ratio of 90% or more (almost completely withered)) | 5 (Herbicidal ratio of 90% or more (almost completely withered)) | 3 (Herbicidal ratio of 40% or more and less than 70%) | 2 (Herbicidal ratio of 20% or more and less than 40%) | 5 (Herbicidal ratio of 90% or more (almost completely withered)) | 5 (Herbicidal ratio of 90% or more (almost completely withered)) | 
